Results published in PubChem BioAssay AID274 (DTP/NCI, 2004).
Where “and” joins values, the source holds several entries; their conditions need not be identical. Equal values may be shown once. Toxic doses and inconclusive results are not listed. The calls were made as follows: active = survival T/C of 150% or more; inactive = T/C below 125% in these data.

Test system: BDF1 mice, Lewis lung carcinoma iv, survival T/C
Test: NCI In Vivo Anticancer Drug Screen. Data for tumor model Lewis Lung Carcinoma (intravenous) in B6D2F1 (BDF1) mice
Conditions: endpoint: median survival time, schedule: Q01DX009 (ip), higher = longer survival
Protocol: The antitumor activity of compounds was measured in mice bearing transplantable tumors. Survival or tumor size were measured and the results are expressed as the measurement made in the treated group (T) divided by the measurement made in the vehicle treated control group (C). The tumor model used in this assay is Lewis Lung Carcinoma (intravenous) in B6D2F1 (BDF1) mice

[1] = dose: 12.5 mg/kg/injection, vehicle: saline with Tween-80
[2] = dose: 25.0 mg/kg/injection, vehicle: saline with Tween-80
[3] = dose: 50.0 mg/kg/injection, vehicle: saline with Tween-80
[4] = dose: 100.0 mg/kg/injection, vehicle: saline with Tween-80

Measured: T/C

CCOC(=O)C1=C(C#N)C2(CCC(OCc3ccccc3)CC2)C(=O)O1 (configuration not stated)
inactive: dose: 12.5 mg/kg/injection, vehicle: saline 94 % of control | dose: 25.0 mg/kg/injection, vehicle: saline 95 % of control | dose: 50.0 mg/kg/injection, vehicle: saline 98 % of control | dose: 100.0 mg/kg/injection, vehicle: saline 106 % of control | dose: 200.0 mg/kg/injection, vehicle: saline 114 % of control | dose: 400.0 mg/kg/injection, vehicle: saline 89 % of control

Cc1nc(N)nc(N)c1-c1ccc(Cl)c(Cl)c1
inactive: dose: 0.31 mg/kg/injection, vehicle: saline 108 % of control | dose: 0.63 mg/kg/injection, vehicle: saline 109 % of control | dose: 1.25 mg/kg/injection, vehicle: saline 113 % of control | dose: 2.5 mg/kg/injection, vehicle: saline 120 % of control | dose: 5.0 mg/kg/injection, vehicle: saline 109 % of control

Cc1cc(NCCCCCCCNc2cc(C)nc3cc(N)ccc23)c2ccc(N)cc2n1
inactive: dose: 0.78 mg/kg/injection, vehicle: saline with Tween-80 100 % of control | dose: 1.56 mg/kg/injection, vehicle: saline with Tween-80 102 % of control | dose: 3.12 mg/kg/injection, vehicle: saline with Tween-80 102 % of control | dose: 6.25 mg/kg/injection, vehicle: saline with Tween-80 110 % of control | [1] 96 % of control

CC1OC(O[C@H]2/C=C/C=C/C=C/C=C/C=C/C=C/C=C/[C@H](C)[C@@H](O)[C@@H](C)[C@H](C)OC(=O)C[C@H](O)C[C@H](O)CC[C@@H](O)[C@H](O)C[C@H](O)C[C@]3(O)C[C@H](O)[C@@H](C(=O)O)[C@H](C2)O3)C(O)C(N)C1O (some centres not stated)
inactive: dose: 1.0 mg/kg/injection, vehicle: saline 105 % of control | dose: 2.0 mg/kg/injection, vehicle: saline 109 % of control | dose: 8.0 mg/kg/injection, vehicle: saline 109 % of control | dose: 16.0 mg/kg/injection, vehicle: saline 124 % of control

C=C1C(=O)OC2C3OC(C)(CCC(O)C3COC(C)=O)CC(OC(=O)/C(=C/C)COC(C)=O)C12 (configuration not stated)
inactive: dose: 0.75 mg/kg/injection, vehicle: suspension in saline 112 % of control | dose: 1.5 mg/kg/injection, vehicle: suspension in saline 103 % of control | dose: 3.0 mg/kg/injection, vehicle: suspension in saline 89 % of control

O=C1N=C(Oc2ccccc2)SC1=O
inactive: [1] 100 % of control and 109 % of control | [2] 97 % of control | [3] 94 % of control and 102 % of control | [4] 100 % of control

CN1C(=O)NC(c2ccc(Cl)cc2)(c2ccc(Cl)cc2)C1=O
inactive: dose: 12.5 mg/kg/injection, vehicle: distilled water + Tween-80 102 % of control | dose: 25.0 mg/kg/injection, vehicle: distilled water + Tween-80 124 % of control | dose: 50.0 mg/kg/injection, vehicle: distilled water + Tween-80 116 % of control | dose: 200.0 mg/kg/injection, vehicle: distilled water + Tween-80 105 % of control

CC(=O)OCC(=O)[C@@]12OC(C)(C)O[C@@H]1C[C@H]1[C@@H]3CC(C=O)=C4C=C(OCCCl)CC[C@]4(C)[C@@]3(F)[C@@H](O)C[C@@]12C
inactive: dose: 1.56 mg/kg/injection, vehicle: Klucel (hydroxypropylcellulose) (HPC) 104 % of control | dose: 3.12 mg/kg/injection, vehicle: Klucel (hydroxypropylcellulose) (HPC) 100 % of control | dose: 3.13 mg/kg/injection, vehicle: Klucel (hydroxypropylcellulose) (HPC) 110 % of control | dose: 6.25 mg/kg/injection, vehicle: Klucel (hydroxypropylcellulose) (HPC) 102 % of control and 112 % of control | dose: 12.5 mg/kg/injection, vehicle: Klucel (hydroxypropylcellulose) (HPC) 104 % of control and 121 % of control

CN1C(=O)C(=Cc2ccc(O)cc2)C(=O)N(C)C1=O
inactive: [1] 101 % of control | [2] 105 % of control | [3] 106 % of control | [4] 99 % of control | dose: 200.0 mg/kg/injection, vehicle: saline with Tween-80 101 % of control | dose: 400.0 mg/kg/injection, vehicle: saline with Tween-80 96 % of control
